The source of these data is patent publication US10259712B2, “Method of stabilizing compounds in water, water compositions thereby, and articles containing said water compositions” (priority 2015, dated 2019).

Structures are written as SMILES. Like-named read-outs stand apart in the source and are kept apart here.

A short description of data set [1]: Accelerated ageing of chlorine dioxide in aqueous carriers, 75 days at 50° C. It is filed as physicochemical. As to the method:
A series of dilutions were set up and aged for 75 days at 50° C., (approximately two years of stability of this solution) that creates chlorine dioxide. A solution of chlorine dioxide at a concentration of 0.4 ppm was separately added to dioxytetrahydride gas-infused water and a second sample in tap water. The samples were aged for 75 days at 50° C. Prior to testing the concentration of chlorine dioxide of each sample, a control of chlorine dioxide at a concentration of 0.4 ppm in water was prepared. The concentration of chlorine dioxide measured in the two samples after aging, was 0.4 ppm for the dioxytetrahydride gas-infused water and 0.2 ppm for tap water.
The same protocol was performed on 0.2 ppm concentration of chlorine dioxide and the test results were 0.2 ppm for the dioxytetrahydride gas-infused water and 0.0 ppm in tap water.

For data set [2] the following is noted: initial 50 ppm. The source says:
Peroxide test strips supplied by Indigo® Instruments, Part #33815-P100 (referred as “peroxide test strips” or “test strip” herein) were used to determine the amount of hydrogen peroxide in either distilled water or in water infused with dioxytetrahydride gas (referred as “dioxytetrahydride gas-infused water” or “ultra-pure polarized water” herein). Test Strips are capable of measuring peroxide concentrations between 1 and 100 ppm (parts per million). A peroxide test strip was first submerged into 3% water solution of hydrogen peroxide obtained from a drugstore for home use.
A peroxide test strip was submerged into a clear PET-1 bottle (0.5 liter) of distilled water produced by Crystal Springs and another clear PET-1 bottle (0.5 liter) of dioxytetrahydride gas-infused water manufactured by AquaNew, LLC, Sarasota, Fla., respectively. The water produced by AquaNew is highly purified resulting from at least six (6) stages of treatment to obtain on or about 0.3 ppm of Total Dissolved Solids (pharmaceutical-grade water). […] Ten (10) drops of peroxide were added into each sample bottle and a test strip was dipped into each bottle and each bottle was immediately recapped. […] Both bottles with closures were left on a shelf in open light conditions under climate controlled conditions with no direct sunlight.
After two weeks, a test strip was dipped into each bottle and the bottle was immediately recapped. […] The two bottles with closures were placed back onto the shelf.
After four (4) months, another test strip was dipped into each bottle and the bottles were immediately recapped.

For data set [3] the following is noted: 58° C. How it is done:
Continuous experiments on the relative stabilization of hydrogen peroxide with different aqueous carriers, that is, types of water, including dioxytetrahydride gas-infused water, were carried out.
Very low concentrations of hydrogen peroxide (1.2 weight %) was added to the various aqueous carriers and measured for percent absorption by potassium permanganate titration.
The samples were tested on day 1, 20, 27 and 34. The tests were accelerated in aging when the temperature of each water sample was maintained at 58° C., approximating close to two years of stabilization.

Setting [4] is: in dioxytetrahydride gas-infused water, throughout the 34 days, initial 1.2 weight %.

For `[O][Cl+][O-]` [chlorine dioxide], the “concentration of chlorine dioxide after aging” value in data set [1] (in dioxytetrahydride gas-infused water, initial 0.2 ppm) is 0.2 ppm; in data set [1] (in dioxytetrahydride gas-infused water, initial 0.4 ppm) it was 0.4 ppm; in data set [1] (in tap water, initial 0.2 ppm), 0.0 ppm; in data set [1] (in tap water, initial 0.4 ppm), 0.2 ppm.
For `OO` [hydrogen peroxide], the peroxide concentration worked out at 50 ppm in data set [2] (in dioxytetrahydride gas-infused water, after four (4) months); 50 ppm in data set [2] (in dioxytetrahydride gas-infused water, after two weeks, clear PET-1 bottle on shelf in open light); 30 ppm in data set [2] (in distilled water, after four (4) months); 30 ppm in data set [2] (in distilled water, after two weeks, clear PET-1 bottle on shelf in open light). Besides, the hydrogen peroxide concentration in data set [3] (setting [4]) is 1.2%; in data set [3] (in tap water, day 20, initial 1.2%), 0.4%; in data set [3] (in tap water, day 34, initial 1.2%), “below 0.2%”. In data set [3] (setting [4]), this compound returned a percent absorption of around 100%.
